Data from ChEMBL document CHEMBL4840323, “Discovery of an Orally Bioavailable Small-Molecule Inhibitor for the β-Catenin/B-Cell Lymphoma 9 Protein-Protein Interaction” (J Med Chem, 2021).
Active and inactive are the calls of the source. The rule behind the calls is not given here.

What was measured:
Mus musculus [1] = species: Mus musculus; conditions: dose 90.0 mg/kg, time 5.0 day
MDA-MB-231 [2] = assay: Induction of apoptosis in human MDA-MB-231 cells assessed as late apoptotic cells at 40 uM measured after 72 hrs by annexinV-FITC/propidium iodide staining based flow cytometry (reference value: 8.8 %); format: functional
4013 = assay: Antitumor activity against patient-derived 4013 cells orthotopically xenografted in SCID-Beige mouse assessed as reduction in tumor weight at 90 mg/kg, po via gavage for 5 days; format: functional, organism-based; conditions: Homo sapiens, time 5.0 day
MDA-MB-231 [3] = assay: Antiinvasive activity against human MDA-MB-231 cells cultured as 3D-spheroids measured after 6 days by imaging analysis; format: functional, cell-based; conditions: dose 5-40 µM, time 6.0 day
[4] = Solubility of the compound in EtOH/saline (5/95) at 2 mg/ml; format: physicochemical; conditions: buffer
MDA-MB-468 [5] = assay: Antiproliferative activity against human MDA-MB-468 cells harboring empty pcDNA3.1 vector at 10 uM measured after 72 hrs by MTS assay; format: functional, cell-based
MDA-MB-468 [6] = assay: Induction of apoptosis in human MDA-MB-468 cells assessed as late apoptotic cells at 40 uM measured after 72 hrs by annexinV-FITC/propidium iodide staining based flow cytometry (reference value: 13.9 %); format: functional
MCF-10A [7] = assay: Induction of apoptosis in human MCF-10A cells assessed as late apoptotic cells at 40 uM measured after 72 hrs by annexinV-FITC/propidium iodide staining based flow cytometry (reference value: 13.9 %); format: cell-based
MDA-MB-231 [8] = assay: cells; conditions: Homo sapiens, MDA-MB-231, 72 h
Description: Antiproliferative activity against human MDA-MB-231 cells assessed as cell growth inhibition measured after 72 hrs by MTS assay

[9] = Cmax in C57BL/6 mouse at 20 mg/kg, po via gavage measured up to 24 hrs by LC-MS/MS analysis; format: ADME, organism-based; design: route oral, dose 20 mg/kg, time <=24; conditions: in vivo
Mus musculus [10] = species: Mus musculus; conditions: dose 90.0 mg/kg, time 5.0 day; remark: listed apart in the source
[11] = AUC in C57BL/6 mouse at 20 mg/kg, po via gavage measured up to 24 hrs by LC-MS/MS analysis; format: ADME, organism-based; design: route oral, dose 20 mg/kg, time <=24; conditions: in vivo
[12] = Half life in mouse liver microsomes at 1 uM measured up to 60 mins in presence of NADPH by LC-MS/SM analysis; format: ADME, Microsome; conditions: 1 h
MDA-MB-231 [13] = assay: Induction of apoptosis in human MDA-MB-231 cells assessed as early apoptotic cells at 40 uM measured after 72 hrs by annexinV-FITC/propidium iodide staining based flow cytometry (reference value: 5.3 %); format: functional
[14] = Half life in human liver microsomes at 1 uM measured up to 60 mins in presence of NADPH by LC-MS/SM analysis; format: ADME, Microsome; conditions: 1 h
MDA-MB-231 [15] = assay: Induction of apoptosis in human MDA-MB-231 cells assessed as early apoptotic cells at 10 uM measured after 72 hrs by annexinV-FITC/propidium iodide staining based flow cytometry (reference value: 5.3 %); format: functional
[16] = Intrinsic clearance in mouse liver microsomes at 1 uM measured up to 60 mins in presence of NADPH by LC-MS/SM analysis; format: ADME, Microsome; conditions: 1 h
SW480 [17] = assay: Inhibition of Wnt/beta-catenin transactivation signalling in human SW480 cells assessed as relative activity at 1.56 uM measured after 24 hrs by TOPFlash reporter gene assay relative to control; format: cell-based; design: scale not given: the % may be the effect or the level left
MCF-10A [18] = assay: Induction of apoptosis in human MCF-10A cells assessed as early apoptotic cells at 40 uM measured after 72 hrs by annexinV-FITC/propidium iodide staining based flow cytometry (reference value: 28.9 %); format: cell-based
Mus musculus [19] = species: Mus musculus; conditions: dose 90.0 mg/kg, time 5.0 day; remark: listed apart in the source
[20] = Intrinsic clearance in human liver microsomes at 1 uM measured up to 60 mins in presence of NADPH by LC-MS/SM analysis; format: ADME, Microsome
MDA-MB-231 [21] = assay: Antiproliferative activity against human MDA-MB-231 cells harboring beta-catenin pcDNA3.1 vector at 20 uM measured after 72 hrs by MTS assay; format: functional, cell-based
[22] = Solubility of the compound in 0.9% NaCl at 2 mg/ml; format: physicochemical
[23] = Half life in C57BL/6 mouse at 20 mg/kg, po via gavage measured up to 24 hrs by LC-MS/MS analysis; format: ADME, organism-based; conditions: in vivo
MCF-10A [24] = assay: Induction of apoptosis in human MCF-10A cells assessed as late apoptotic cells at 10 uM measured after 72 hrs by annexinV-FITC/propidium iodide staining based flow cytometry (reference value: 13.9 %); format: cell-based
MDA-MB-231 [25] = assay: Downregulation of HPRT mRNA expression in Wnt3a stimulated human MDA-MB-231 cells at 10 to 40 uM measured after 24 hrs by qRT-PCR analysis; conditions: dose 10-40 µM
[26] = Toxicity in SCID-Beige mouse orthotopically xenografted with patient-derived 4013 cells at 90 mg/kg, po via gavage for 5 days; format: organism-based; conditions: in vivo, 120 h, time 5 day
MDA-MB-468 [27] = assay: Induction of apoptosis in human MDA-MB-468 cells assessed as early apoptotic cells at 40 uM measured after 72 hrs by annexinV-FITC/propidium iodide staining based flow cytometry (reference value: 28.9 %); format: functional
MDA-MB-468 [28] = assay: Inhibition of Wnt/beta-catenin transactivation signalling in Wnt3a stimulated human MDA-MB-468 cells assessed as relative activity at 12.5 uM measured after 24 hrs by TOPFlash reporter gene assay relative to control; format: cell-based; design: scale not given: the % may be the effect or the level left
SW480 [29] = assay: cells; conditions: Homo sapiens, SW480, 72 h
Description: Antiproliferative activity against human SW480 cells assessed as cell growth inhibition measured after 72 hrs by MTS assay

[30] = AUC in C57BL/6 mouse at 1 mg/kg, iv measured after 5 mins by LC-MS/MS analysis; format: ADME, organism-based; design: route intravenous, dose 1 mg/kg, time 5 min; conditions: in vivo
[31] = Volume of distribution in C57BL/6 mouse at 1 mg/kg, iv measured after 5 mins by LC-MS/MS analysis; format: ADME, organism-based; conditions: in vivo
MDA-MB-231 [32] = assay: Induction of apoptosis in human MDA-MB-231 cells assessed as late apoptotic cells at 20 uM measured after 72 hrs by annexinV-FITC/propidium iodide staining based flow cytometry (reference value: 8.8 %); format: functional
MCF-10A [33] = assay: Induction of apoptosis in human MCF-10A cells assessed as early apoptotic cells at 10 uM measured after 72 hrs by annexinV-FITC/propidium iodide staining based flow cytometry (reference value: 28.9 %); format: cell-based
[34] = Aqueous solubility of the compound; format: physicochemical; conditions: buffer
[35] = Cmax in C57BL/6 mouse at 1 mg/kg, iv measured after 5 mins by LC-MS/MS analysis; format: ADME, organism-based; design: route intravenous, dose 1 mg/kg, time 5 min; conditions: in vivo
Mus musculus [36] = species: Mus musculus; conditions: dose 90.0 mg/kg, time 5.0 day; remark: listed apart in the source
[37] = Solubility of the compound in DMSO/Tween-80/H2O (10/10/80) at 2 mg/ml; format: physicochemical
[38] = Oral bioavailability in C57BL/6 mouse at 20 mg/kg measured up to 24 hrs by LC-MS/MS analysis; format: ADME, organism-based; conditions: in vivo
SW480 [39] = assay: Downregulation of HPRT mRNA expression in human SW480 cells at 10 to 40 uM measured after 24 hrs by qRT-PCR analysis; format: functional, cell-based; conditions: dose 10-40 µM

CC(C)(Oc1cccc(N2CCC[C@@H](C(=O)N(Cc3ccc(-c4cn[nH]c4)cc3)C3CC3)C2)c1)C(=O)N1CCNCC1.Cl
inhibition (Mus musculus [1]): Active | Activity (MDA-MB-231 [2]): 18.9% | Activity 4013: inactive | Activity (MDA-MB-231 [3]): Dose-Dependent Effect | solubility [4]: Soluble | Activity (MDA-MB-468 [5]): Active | Activity (MDA-MB-468 [6]): 33.4% | Activity (MCF-10A [7]): 15.3% | IC50 (MDA-MB-231 [8]): 28 µM | Cmax [9]: 3210 nM | inhibition (Mus musculus [10]): Active | AUC [11]: 11.71 µM·h | t1/2 [12]: 9.6 min | Activity (MDA-MB-231 [13]): 53.1% | t1/2 [14]: 38.4 min | Activity (MDA-MB-231 [15]): 5.4% | CLint [16]: 72 µL/min/mg | Activity (SW480 [17]): 95% | Activity (MCF-10A [18]): 3.9% | inhibition (Mus musculus [19]): Active | CLint at 1 h, 1 µM [20]: 18 µL/min/mg | Activity (MDA-MB-231 [21]): inactive | solubility [22]: Soluble | t1/2 [23]: 184 min | Activity (MCF-10A [24]): 12.3% | Activity (MDA-MB-231 [25]): inactive | Activity [26]: Toxic | Activity (MDA-MB-468 [27]): 53.5% | Activity (MDA-MB-468 [28]): 96% | IC50 (SW480 [29]): 24 µM | AUC [30]: 0.71 µM·h | Vd [31]: 8 L/kg | Activity (MDA-MB-231 [32]): 23% | Activity (MCF-10A [33]): 1.9% | solubility [34]: > 3000 µM | Cmax [35]: 790 nM | inhibition (Mus musculus [36]): Active | solubility [37]: Soluble | F [38]: 83% | Activity (SW480 [39]): inactive
